According to US20130131156A1, “Cancer Treatment with Wortmannin Analogs” (ONCOTHYREON INC., priority 2010, published 2013):

Key:
[1] = Phase I trial of oral PX-866: clinical pharmacokinetics; format: in vivo, human
PIK3CA (p110α) = PIK3CA (p110α) (Homo sapiens, UniProt P42336); experiment: PI-3K isoform inhibition, p110α (PIK3CA); the text calls it cell based; settings: cell proliferation assays versus p110α and p110β isoforms
Source text: PX-866 is an pan-isoform inhibitor of Class I P1-3K that covalently binds to ATP binding site of the p110 catalytic subunit.

advanced solid tumors = experiment: Phase I trial of oral PX-866: tumor response by RECIST; format: in vivo, human; settings: 1 to 7 prior treatments, median 4 prior systemic regimens
Method: (§1) This was an Open-label dose escalation study with expansion cohort at Maximal Tolerated Dose (MTD), 3+3 design and to test efficacy of 2 dosing schedules (intermittent and continuous). PX-866 was administered as an oral dose.
Patient response was evaluated according to Response Evaluation Criteria in Solid Tumors (RECIST). Briefly, all measurable lesions up to a maximum of five lesions, representative of all involved organs were identified as target lesions and recorded and measured at baseline. Target lesions were selected on the basis of their size (lesions with the longest diameter) and their suitability for accurate repeated measurements (either by imaging techniques or clinically). A sum of the longest diameter (LD) for all target lesions was calculated and reported as the baseline sum LD. The baseline sum LD was used as reference by which to characterize the objective tumor. All other lesions (or sites of disease) were identified as non-target lesions and were also be recorded at baseline. Measurements of these lesions were not required, but the presence or absence of each was noted throughout follow-up.
A Complete Response (CR) indicated a disappearance of all target lesions.

[2] = Phase I trial of oral PX-866: safety, DLT and MTD; format: in vivo, human; settings: for Maximal Tolerated Dose (MTD): oral
Method: as §1
The primary and secondary objectives were tested using two different dosing regimens: 10 days of drug administration and daily administration for 28 days.
Intermittent schedule: 10 dose levels tested (0.5-16 mg). The starting dose level was 0.5 mg. Doses increased as follows: 100% escalation up to 2 mg, 50% escalation up to 4.5 mg, and approximately 30% escalation until the MTD is identified. The highest dose level at which no more than 1/6 patients experiences DLT was declared the MTD. The resulting dose levels were: 0.5, 1, 2, 3, 4.5, 6, 8, 10, 12 and 16 mg.
FIG. 1 illustrates the dosing schedule for intermittent dosing where PX-866 was given to patients on days 1-5 and 8-12 of a 28-day cycle.
Continuous dosing schedule: The starting dose was two dose levels below the MTD of intermittent dosing (8 mg) and subsequent dose levels was one or two dose levels (10 mg or 8 mg) below the MTD of intermittent dosing dependent on recommendation of the dose cohort review committee. FIG. 1 illustrates the dosing schedule for continuous dosing.

p-AKT/T-AKT = experiment: Clinical pharmacodynamics: p-AKT/T-AKT after a single oral dose; format: in vivo, human; settings: 3 of 4 patients, 8 mg dose level, 4 hours after a single oral dose
PI-3K pathway = experiment: Clinical pharmacodynamics: PBMCs stimulated ex vivo, FACS based assay (p-mTOR, p-S6); format: in vivo, human; settings: PBMCs of treated patients stimulated ex vivo
Method: The pharmacodynamic effects of PX-866 in patients treated in the phase I single agent study were assessed using isolated peripheral blood mononuclear cells (PBMCs) stimulated ex vivo via FACS based assay. […] The study provided Evidence for pathway inhibition lasting up to 3 days post-treatment.

Chain of PIK3CA (p110α) (P42336 whole entry, canonical isoform): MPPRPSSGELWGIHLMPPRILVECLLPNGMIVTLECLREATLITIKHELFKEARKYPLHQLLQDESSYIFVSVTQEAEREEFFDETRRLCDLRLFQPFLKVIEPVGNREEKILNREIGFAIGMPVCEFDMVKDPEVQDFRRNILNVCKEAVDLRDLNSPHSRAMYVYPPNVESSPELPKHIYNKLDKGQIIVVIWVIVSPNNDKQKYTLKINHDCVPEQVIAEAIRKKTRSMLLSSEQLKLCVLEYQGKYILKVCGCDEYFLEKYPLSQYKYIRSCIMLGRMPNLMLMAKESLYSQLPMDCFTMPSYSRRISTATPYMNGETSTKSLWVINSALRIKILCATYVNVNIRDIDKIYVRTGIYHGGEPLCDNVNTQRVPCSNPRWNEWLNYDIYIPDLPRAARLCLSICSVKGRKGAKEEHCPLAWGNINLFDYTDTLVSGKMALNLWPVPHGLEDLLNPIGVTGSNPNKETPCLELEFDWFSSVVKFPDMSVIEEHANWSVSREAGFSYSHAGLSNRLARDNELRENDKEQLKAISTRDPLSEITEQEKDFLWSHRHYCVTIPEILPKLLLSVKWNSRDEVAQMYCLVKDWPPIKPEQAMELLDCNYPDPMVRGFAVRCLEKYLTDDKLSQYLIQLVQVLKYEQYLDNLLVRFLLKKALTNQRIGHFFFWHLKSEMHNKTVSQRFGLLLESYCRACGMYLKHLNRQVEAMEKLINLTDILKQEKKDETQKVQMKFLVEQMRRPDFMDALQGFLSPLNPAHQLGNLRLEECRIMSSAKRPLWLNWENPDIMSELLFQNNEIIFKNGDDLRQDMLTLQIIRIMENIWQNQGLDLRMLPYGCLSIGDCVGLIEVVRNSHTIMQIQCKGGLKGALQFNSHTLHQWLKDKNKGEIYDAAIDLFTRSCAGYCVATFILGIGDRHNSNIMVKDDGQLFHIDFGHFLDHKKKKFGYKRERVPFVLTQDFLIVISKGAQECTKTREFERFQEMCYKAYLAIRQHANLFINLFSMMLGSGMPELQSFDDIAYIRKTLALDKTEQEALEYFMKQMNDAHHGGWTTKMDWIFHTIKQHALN
Chain of PIK3CA (p110α) (P27986 whole entry partner, canonical isoform): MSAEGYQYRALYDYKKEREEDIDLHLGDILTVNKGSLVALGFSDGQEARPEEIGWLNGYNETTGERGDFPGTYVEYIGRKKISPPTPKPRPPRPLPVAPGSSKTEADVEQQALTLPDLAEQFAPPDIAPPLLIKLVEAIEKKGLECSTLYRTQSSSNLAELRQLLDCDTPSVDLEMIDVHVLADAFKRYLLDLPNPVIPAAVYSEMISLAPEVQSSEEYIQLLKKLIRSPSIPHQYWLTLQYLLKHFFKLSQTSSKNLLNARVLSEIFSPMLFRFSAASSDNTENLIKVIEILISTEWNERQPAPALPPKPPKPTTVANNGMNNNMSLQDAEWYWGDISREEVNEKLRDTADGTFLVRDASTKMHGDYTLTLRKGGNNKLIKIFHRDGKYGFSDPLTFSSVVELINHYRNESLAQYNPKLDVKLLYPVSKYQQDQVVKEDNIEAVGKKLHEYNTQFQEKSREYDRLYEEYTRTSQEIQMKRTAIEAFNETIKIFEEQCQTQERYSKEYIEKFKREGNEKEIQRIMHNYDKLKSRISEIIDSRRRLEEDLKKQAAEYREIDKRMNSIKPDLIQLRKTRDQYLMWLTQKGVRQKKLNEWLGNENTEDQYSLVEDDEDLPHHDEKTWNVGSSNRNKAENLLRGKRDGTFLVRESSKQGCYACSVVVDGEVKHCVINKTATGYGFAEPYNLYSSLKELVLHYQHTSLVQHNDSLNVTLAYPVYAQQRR

C=CCN(C=C1C(=O)OC(COC)C2(C)C1=C(O)C(=O)C1=C2C(OC(C)=O)CC2(C)C(O)CCC12)CC=C (stereo not shown) [17-OH PX-866]
AUC in humans compared with mice ([1]; due to an increase in mean residence time in humans): exceeded AUC in mice | increase in potency versus the parent PX-866 (PIK3CA (p110α)): 2-5 fold

C=CCN(/C=C1/C(=O)O[C@H](COC)[C@@]2(C)C1=C(O)C(=O)C1=C2[C@H](OC(C)=O)C[C@]2(C)C(=O)CC[C@@H]12)CC=C [PX-866, Acetic acid 4-diallylaminomethylene-6-hydroxy-1-α-methoxymethyl-10β,13β-dimethyl-3,7,17-trioxo-1,3,4,7,10,11β,12,13,14α,15,16,17-dodecahydro-2-oxa-cyclopenta[α]phenanthren-11-yl ester]
plasma level of parent PX-866 ([1]; after oral PX-866, with rare exceptions): below the limits of detection | effect on disease in prior treated patients (advanced solid tumors): stabilized disease | Maximal Tolerated Dose (MTD) ([2]; continuous daily dosing): 8 mg per day | ALT/AST ([2]; continuous dosing): ALT/AST elevation was observed | Most common adverse events ([2]; continuous dosing): diarrhea, nausea, vomiting, headache and fatigue | Related Grade 3 events ([2]; continuous dosing section): vomiting (n=3), diarrhea (n=3), liver enzyme elevation (n=2) dehydration (n=1), worsened hypertension (n=1) | Dose limiting toxicity (DLT), patients affected ([2]; continuous dosing, 10 mg per day, Grade 3 diarrhea (n=2)): 2/3 | Most common adverse events ([2]; intermittent dosing): diarrhea, nausea, vomiting, and constipation | Related Grade 3 events ([2]; intermittent dosing): vomiting (n=3), diarrhea (n=3), liver enzyme elevation (n=2) dehydration (n=1), and worsened hypertension (n=1) | Dose limiting toxicity (DLT), patients affected ([2]; intermittent dosing, 16 mg per day, Grade 3 diarrhea (n=1), Grade 3 AST (n=1)): 2/5 | Maximal Tolerated Dose (MTD) ([2]; intermittent dosing, days 1-5 and 8-12 of a 28-day cycle): 12 mg per day | toxicity in patients receiving >2 cycles ([2]; printed in the continuous dosing section but worded intermittent dosing schedule): No significant increase in toxicity | decrease in p-AKT/T-AKT (p-AKT/T-AKT): ≥ 60% | effect on the PI-3K pathway (p-mTOR, p-S6) (PI-3K pathway): inhibition of the PI-3K pathway
